Laboratory results published in paper PMC3968008 (PLoS ONE, 2014).
Converted amounts (≈) assume the structure as drawn. Square brackets hold non-standard residues; d marks the D form. Peptide text beside a SMILES is read from it.

Columns and labels:
Bacteroides fragilis = assay: microbe, parasite or virus in culture; format: cell-based; details: 48 h
Method: (§1) Antimicrobial activity of the peptides was evaluated against Escherichia coli JCM 5491, Pseudomonas aeruginosa JCM 6119, Staphylococcus aureus JCM2874, Salmonella Typhimurium JCM1652, Acinetobacter baumannii JCM6841, Bacteroides fragilis JCM11019, Fusobacterium nucleatum JCM11025, Penicillium glabrum JCM22534, Fusarium solani JCM11383, Alternaria alternata JCM5800 (RIKEN, A research institution for basic and applied science in Japan), Micrococcus luteus NBRC13867, Bacillus subtilis NBRC3134, Propionibacterium acnes NBRC107605, Trichophyton mentagrophytes NBRC6124, Trichophyton rubrum NBRC9185, Candida krusei NBRC1395 (National Institute of Technology and Evaluation, Tokyo, Japan), Salmonella Enteritidis IID604 (The Institute of Medical Science, The University of Tokyo, Tokyo, Japan). Additionally, the clinical isolates (Drug-sensitive/resistant Pseudomonas aeruginosa and Staphylococcus aureus, Osaka University Hospital) and multidrug-resistant Acinetobacter baumannii (ATCC BAA-1605) were used. […] Serial two-fold dilutions of peptide were added to 0.1 ml of medium containing each type of bacteria and fungi at concentrations of 0.4×10^4 – 5×10^4 CFU/ml. The plates were incubated at 37°C with vigorous shaking for 24 or 48 hours. The MICs were determined as the lowest concentrations of peptide that inhibited visible bacterial growth.

[1] = test system: Carbapenem-resistant Pseudomonas aeruginosa; format: cell-based; details: 48 h
Method: (§2) Antimicrobial activity of the peptides was evaluated against Escherichia coli JCM 5491, Pseudomonas aeruginosa JCM 6119, Staphylococcus aureus JCM2874, Salmonella Typhimurium JCM1652, Acinetobacter baumannii JCM6841, Bacteroides fragilis JCM11019, Fusobacterium nucleatum JCM11025, Penicillium glabrum JCM22534, Fusarium solani JCM11383, Alternaria alternata JCM5800 (RIKEN, A research institution for basic and applied science in Japan), Micrococcus luteus NBRC13867, Bacillus subtilis NBRC3134, Propionibacterium acnes NBRC107605, Trichophyton mentagrophytes NBRC6124, Trichophyton rubrum NBRC9185, Candida krusei NBRC1395 (National Institute of Technology and Evaluation, Tokyo, Japan), Salmonella Enteritidis IID604 (The Institute of Medical Science, The University of Tokyo, Tokyo, Japan). […] Serial two-fold dilutions of peptide were added to 0.1 ml of medium containing each type of bacteria and fungi at concentrations of 0.4×10^4 – 5×10^4 CFU/ml. The plates were incubated at 37°C with vigorous shaking for 24 or 48 hours. The MICs were determined as the lowest concentrations of peptide that inhibited visible bacterial growth.

Alternaria alternata = assay: microbe, parasite or virus in culture; format: cell-based; details: 48 h
Method: as §1

Acinetobacter baumannii = format: cell-based; details: 48 h
Method: as §2

S. aureus (ATCC29213) = assay: microbe, parasite or virus in culture; format: cell-based, Staphylococcus aureus; details: ATCC29213, 48 h
Method: as §1

Trichophyton rubrum = assay: microbe, parasite or virus in culture; format: cell-based; details: 48 h
Method: as §1

Bacillus subtilis = assay: microbe, parasite or virus in culture; format: cell-based; details: 48 h
Method: as §2

E. coli (ATCC25922) = assay: microbe, parasite or virus in culture; format: cell-based, Escherichia coli; details: ATCC25922, 48 h
Method: as §1

Candida krusei = assay: microbe, parasite or virus in culture; format: cell-based; details: 48 h
Method: as §1

Salmonella Typhimurium = assay: microbe, parasite or virus in culture; format: cell-based; details: murium, 48 h
Method: as §2

[2] = test system: Multidrug-resistant Acinetobacter baumannii; format: cell-based; details: 48 h
Method: as §2

Micrococcus luteus = assay: microbe, parasite or virus in culture; format: cell-based; details: 48 h
Method: as §1

[3] = test system: Trichophyton mentagrophytes; assay: microbe, parasite or virus in culture; format: cell-based; details: 48 h
Method: as §1

Salmonella Enteritidis = assay: microbe, parasite or virus in culture; format: cell-based; details: 48 h
Method: as §2

[4] = peptide 500 μg/ml, 37°C, 3 or 10 minutes, acetonitrile/0.1% trifluoroacetate precipitation, HPLC, N = 2 (Fig. 1E)
Method: In vitro stability studies were performed by incubating the peptide with rat or human serum. Human sera (Pool of donors, 5 men and 5 women) were commercially purchased from KAC (Kyoto, Japan), which has been permitted only for experiment. We don't use the human biological specimens without the documented informed consent. Rat sera were collected from rats. The peptide (500 μg/ml) was added to serum (300 μL) and incubated at 37°C. A part of samples (90 μL) were taken, and the proteins were precipitated with acetonitrile containing 0.1% trifluoroacetate (200 μL). The precipitate was separated by centrifugation. The supernatants were analyzed by high-performance liquid chromatography (HPLC).

Fusarium solani = assay: microbe, parasite or virus in culture; format: cell-based; details: 48 h
Method: as §1

CC[C@H](C)[C@H](NC(=O)[C@H](CC(C)C)NC(=O)[C@H](CCCCN)NC(=O)[C@H](CC(C)C)NC(=O)[C@@H](N)CCSC)C(=O)N[C@@H](Cc1ccccc1)C(=O)N[C@@H](CC(C)C)C(=O)N[C@@H](Cc1c[nH]cn1)C(=O)N[C@@H](CCCNC(=N)N)C(=O)N[C@@H](CC(C)C)C(=O)N[C@@H](CCCCN)C(=O)N[C@@H](CCCNC(=N)N)C(=O)N[C@@H](CCSC)C(=O)N[C@@H](CCCNC(=N)N)C(=O)N[C@@H](CCCCN)C(=O)N[C@@H](CCCNC(=N)N)C(=O)N[C@@H](CC(C)C)C(=O)N[C@H](CCCCN)C(=O)N[C@@H](CCCNC(=N)N)C(=O)N[C@@H](CCCCN)C(=O)O [SR-0379] (H-MLKLIFLHRLKRMRKRL[dK]RK-OH)
MIC Bacteroides fragilis (Bacteroides fragilis): 32 µg/mL (≈ 12 µM)
MIC Pseudomonas aeruginosa, Carbapenem-resistant [1]: 16 to 64 µg/mL
MIC Alternaria alternata (Alternaria alternata): 32 µg/mL (≈ 12 µM)
MIC Acinetobacter baumannii (Acinetobacter baumannii): 8 µg/mL (≈ 3 µM)
MIC S. aureus (ATCC29213) (S. aureus (ATCC29213)): 16 µg/mL (≈ 6 µM)
MIC Trichophyton rubrum (Trichophyton rubrum): 64 µg/mL (≈ 24 µM)
MIC Bacillus subtilis (Bacillus subtilis): 2 µg/mL (≈ 0.75 µM)
MIC E. coli (ATCC25922) (E. coli (ATCC25922)): 8 µg/mL (≈ 3 µM)
MIC Candida krusei (Candida krusei): 32 µg/mL (≈ 12 µM)
MIC Salmonella Typhimurium (Salmonella Typhimurium): 8 µg/mL (≈ 3 µM)
MIC Acinetobacter baumannii, Multidrug-resistant [2]: 16 µg/mL (≈ 6 µM)
MIC Micrococcus luteus (Micrococcus luteus): 2 µg/mL (≈ 0.75 µM)
MIC Trichophyton mentagrophytes [3]: 32 µg/mL (≈ 12 µM)
MIC Salmonella Enteritidis (Salmonella Enteritidis): 8 µg/mL (≈ 3 µM)
Stability in human serum ([4]; human serum (pool of 5 men and 5 women) 300 μL): significantly improved
Stability in rat serum ([4]; rat serum 300 μL): significantly improved
MIC Fusarium solani (Fusarium solani): 8 µg/mL (≈ 3 µM)
